Reference: PMC7552917, “Systematic exploration of different E3 ubiquitin ligases: an approach towards potent and selective CDK6 degraders” (Chemical Science, 2020)
Like-named read-outs stand apart in the source and are kept apart here.

Experiments:
CDK4 = biological target: T1, CDK4 (Homo sapiens, UniProt P11802); experiment: CDK4 degradation, western blot of MM.1S cells; format: cell-based; conditions: 16 h; for Effect of MDM2 ligands on CDK4 levels: indicated concentrations
T1 construct: Percentage values are normalized to DMSO-treated MM.1S cells and the respective loading controls; endogenous in cells; host or cells: MM.1S (human multiple myeloma)
T1 sequence (P11802 whole entry): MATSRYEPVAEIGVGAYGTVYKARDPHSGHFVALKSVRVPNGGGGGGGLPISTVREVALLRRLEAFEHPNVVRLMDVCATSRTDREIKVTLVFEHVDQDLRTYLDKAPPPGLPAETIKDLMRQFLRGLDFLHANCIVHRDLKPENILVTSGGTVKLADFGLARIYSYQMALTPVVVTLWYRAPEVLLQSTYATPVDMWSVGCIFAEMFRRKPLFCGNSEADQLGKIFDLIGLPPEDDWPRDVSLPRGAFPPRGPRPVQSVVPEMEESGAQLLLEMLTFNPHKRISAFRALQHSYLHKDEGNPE
Source text: (§1) We determined the concentration of both kinases and CRBN, the latter in order to control the expression of the corresponding ligase. Since IMiDs, such as pomalidomide, cause the degradation of the lymphoid transcription factors Ikaros (IKZF1) and Aiolos (IKZF3) through the involvement of CRBN,[53],[54] this undesired effect was inspected. […] As further characteristics of CDK4/6d, the desired selectivity of CDK6 over CDK4 degradation and the unwanted influence on the IKZF1 concentration were determined. […] Next, we determined the concentration- and time-dependent activity of 11 (Fig. S2, ESI ^†).
(§2) Multiple myeloma, leukaemia, and murine cell lines:
(§3) After respective designated treatments, cells were washed with 1× PBS and lysed in IP lysis buffer (Pierce) containing HALT protease and phosphatase inhibitor cocktail (Thermo Scientific). Sodium dodecyl sulfate-polyacrylamide gel electrophoresis (SDS-PAGE) was performed with 5–20 µg of protein loaded per sample. Gel electrophoresis was carried out at a constant voltage. Proteins were transferred onto Immobilon-P transfer membranes (Millipore). Membranes were blocked with 5% milk in Tris Buffered Saline with 0.05% Tween 20 (TBS-T) followed by overnight incubation at 4 °C with shaking in primary antibodies diluted in 5% BSA in TBS-T. After incubation with respective secondary HRP-conjugated antibodies diluted in 5% milk in TBST, detection of proteins was performed using either WesternBright ECL HRP substrate or WesternBright Sirius HRP substrate (Advansta). Chemiluminescence was detected with ChemiDoc™ XRS+ System (Bio-Rad). For further detection of other proteins on the same membrane, membranes were subjected to incubation in Restore Western Blot Stripping Buffer, followed by re-blocking, and further probing of proteins was […]

CDK6 = biological target: T2, CDK6 (Homo sapiens, UniProt Q00534); experiment: CDK6 degradation, western blot of MM.1S cells; format: cell-based; conditions: 16 h
T2 construct: Percentage values are normalized to DMSO-treated MM.1S cells and the respective loading controls; endogenous in cells; host or cells: MM.1S (human multiple myeloma)
T2 sequence (Q00534 whole entry): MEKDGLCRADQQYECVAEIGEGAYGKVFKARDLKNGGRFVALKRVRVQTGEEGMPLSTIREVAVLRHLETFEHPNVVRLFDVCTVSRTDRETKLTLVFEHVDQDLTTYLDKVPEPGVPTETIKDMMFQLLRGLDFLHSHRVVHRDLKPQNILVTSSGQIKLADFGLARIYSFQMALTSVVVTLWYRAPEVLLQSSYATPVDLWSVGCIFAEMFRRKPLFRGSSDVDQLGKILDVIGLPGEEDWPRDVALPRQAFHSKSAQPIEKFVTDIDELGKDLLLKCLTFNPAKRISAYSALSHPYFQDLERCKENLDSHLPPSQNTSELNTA
Source text: as §1, §2, §3

IKZF1 = biological target: T3, IKZF1 (Homo sapiens, UniProt Q13422+Q96SW2); experiment: Neosubstrate IKZF1 degradation, western blot of MM.1S cells; format: cell-based; conditions: 16 h, normalized to DMSO (100%); for remaining activity at 0.1 µM: MM1.S, read-out: D IKZF1: remaining IKZF1 levels;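 for all read-outs here: test concentration 0.1 µM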
T3 construct: endogenous in cells; host or cells: MM.1S (human multiple myeloma)
T3 sequence (Q13422 whole entry): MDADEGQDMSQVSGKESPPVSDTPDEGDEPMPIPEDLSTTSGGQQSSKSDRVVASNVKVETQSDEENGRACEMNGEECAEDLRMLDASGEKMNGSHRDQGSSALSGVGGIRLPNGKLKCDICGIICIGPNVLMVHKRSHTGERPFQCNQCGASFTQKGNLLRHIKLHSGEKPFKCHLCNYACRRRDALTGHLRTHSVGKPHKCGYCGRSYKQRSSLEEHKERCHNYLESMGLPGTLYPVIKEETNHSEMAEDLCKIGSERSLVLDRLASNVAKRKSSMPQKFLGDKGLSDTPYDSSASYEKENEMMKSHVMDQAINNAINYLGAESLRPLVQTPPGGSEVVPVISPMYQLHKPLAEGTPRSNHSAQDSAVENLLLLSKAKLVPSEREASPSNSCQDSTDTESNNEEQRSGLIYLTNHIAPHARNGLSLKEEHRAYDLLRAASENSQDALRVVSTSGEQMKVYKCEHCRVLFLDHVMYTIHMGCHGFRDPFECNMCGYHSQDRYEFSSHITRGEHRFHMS
T3 sequence (Q96SW2 whole entry): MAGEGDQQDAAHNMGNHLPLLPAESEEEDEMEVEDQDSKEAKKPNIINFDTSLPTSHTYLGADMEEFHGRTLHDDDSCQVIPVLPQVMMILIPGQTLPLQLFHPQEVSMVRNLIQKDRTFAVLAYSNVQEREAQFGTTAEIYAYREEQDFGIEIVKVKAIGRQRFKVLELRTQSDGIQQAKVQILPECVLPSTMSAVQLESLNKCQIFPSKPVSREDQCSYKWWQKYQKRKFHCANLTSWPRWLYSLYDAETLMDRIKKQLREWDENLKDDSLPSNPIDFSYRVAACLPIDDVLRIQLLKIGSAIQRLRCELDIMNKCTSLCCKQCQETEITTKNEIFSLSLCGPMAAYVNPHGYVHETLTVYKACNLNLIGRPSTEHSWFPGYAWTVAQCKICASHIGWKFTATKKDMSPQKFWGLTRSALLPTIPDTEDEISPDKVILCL
T3 sequence (Q16531 whole entry partner): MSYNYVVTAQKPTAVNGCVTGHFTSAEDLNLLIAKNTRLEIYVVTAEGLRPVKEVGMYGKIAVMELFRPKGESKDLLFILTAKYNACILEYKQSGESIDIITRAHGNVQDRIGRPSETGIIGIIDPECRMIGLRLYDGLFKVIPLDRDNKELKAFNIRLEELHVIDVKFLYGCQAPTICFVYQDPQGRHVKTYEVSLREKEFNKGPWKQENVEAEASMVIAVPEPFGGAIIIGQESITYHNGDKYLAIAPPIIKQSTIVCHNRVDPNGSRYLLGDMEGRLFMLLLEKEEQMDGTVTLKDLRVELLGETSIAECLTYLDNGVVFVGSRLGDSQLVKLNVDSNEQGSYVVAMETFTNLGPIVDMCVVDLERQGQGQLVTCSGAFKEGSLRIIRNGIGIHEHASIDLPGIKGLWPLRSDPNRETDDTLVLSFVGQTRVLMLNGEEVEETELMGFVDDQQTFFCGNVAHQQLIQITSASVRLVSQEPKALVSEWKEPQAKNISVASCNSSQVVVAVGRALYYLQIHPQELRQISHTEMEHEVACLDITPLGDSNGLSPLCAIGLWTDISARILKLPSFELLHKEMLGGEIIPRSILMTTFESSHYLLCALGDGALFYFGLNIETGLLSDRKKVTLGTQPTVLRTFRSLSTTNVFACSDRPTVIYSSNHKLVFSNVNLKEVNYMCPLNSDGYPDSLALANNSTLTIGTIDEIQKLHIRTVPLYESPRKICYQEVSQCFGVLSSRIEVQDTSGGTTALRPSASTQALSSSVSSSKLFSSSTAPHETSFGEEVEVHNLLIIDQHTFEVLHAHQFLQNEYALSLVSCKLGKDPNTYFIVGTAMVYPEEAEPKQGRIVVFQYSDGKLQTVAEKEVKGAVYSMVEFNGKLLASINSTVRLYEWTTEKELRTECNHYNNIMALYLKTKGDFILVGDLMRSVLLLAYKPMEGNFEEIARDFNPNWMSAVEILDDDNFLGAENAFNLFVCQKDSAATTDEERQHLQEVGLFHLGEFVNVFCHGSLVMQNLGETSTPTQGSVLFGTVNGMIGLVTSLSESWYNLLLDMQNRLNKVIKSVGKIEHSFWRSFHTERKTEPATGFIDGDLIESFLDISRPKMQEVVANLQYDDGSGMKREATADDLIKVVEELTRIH
Source text: as §1, §2, §3

[1] = elog D7.4 by chromatographic (HPLC) method; format: physicochemical; conditions: Polaris C18-A column, pH 7.4, read-out: elog D7.4 (experimental distribution coefficient at pH 7.4)
Procedure: Supplementary Information: Physical Chemistry
N. Molecular Descriptor Calculation […]
O. Physicochemical Measurements
The determination of the elog D7.4 values was performed by a chromatographic method according to […]
The column was a Polaris C18-A column (2 mm I.D., 50 mm length, 3 μm particle size) from Agilent Technologies. A linear mobile phase gradient was applied with […] TRIS buffer adjusted to pH 7.4 and MeCN. Therefore, the gradient was run from 5% […]
between the runs with a constant flow-rate of 0.8 ml/min and a temperature of 25 °C. The output wavelength of the detector was set to 269.5 nm. In order to calibrate the log D7.4 to the retention time, 6 different drugs with known log D7.4 were dissolved in DMSO and 10 µl were injected […]
Approximately 1 mg of the samples was dissolved in DMSO and 5 µl were injected. Analyses were conducted in duplicates. Subsequently, the mean retention times of the analytes were taken to calculate their log D7.4 values with aid of the calibration line.

[2] = MM1.S, 0.1 μM, MM.1S cells, normalized to DMSO (100%), read-out: D CDK4: remaining CDK4 levels
[3] = MM1.S, 0.1 μM, MM.1S cells, normalized to DMSO (100%), read-out: D CDK6: remaining CDK6 levels
[4] = 1 μM, MM.1S cells, normalized to DMSO (100%)

SMILES	remaining activity at 0.1 µM (CDK4; [2]) [%]	remaining activity at 0.1 µM (CDK6; [3]) [%]	Selectivity ratio D CDK4/D CDK6 for the degradation of CDK6 over CDK4 (CDK6; 0.1 μM, MM.1S cells)	chromatographic logD [1]	remaining activity at 0.1 µM (IKZF1) [%]	further results
Nc1cccc2c1C(=O)N(C1CCC(=O)NC1=O)C2=O (stereo not drawn) [3 (POM), pomalidomide, reference compound]	91	91				D IKZF1: remaining IKZF1 levels (IKZF1; 0.1 μM): 17%
CC(C)[C@@H](CS(=O)(=O)C(C)C)N1C(=O)[C@@](C)(CC(=O)O)C[C@H](c2cccc(Cl)c2)[C@H]1c1ccc(Cl)cc1 [AMG232, reference compound]						Effect of MDM2 ligands on CDK4 levels (CDK4; MM.1S cells): diminished CDK4 levels in a dose-dependent manner
CC(=O)c1c(C)c2cnc(Nc3ccc(N4CCN(C(=O)COCCOCCNc5cccc6c5C(=O)N(C5CCC(=O)NC5=O)C6=O)CC4)cn3)nc2n(C2CCCC2)c1=O (stereo not drawn) [compound 12]	19	8.4	2.3	2.8	0.8	
CC(=O)c1c(C)c2cnc(Nc3ccc(N4CCN(C(=O)CCCCOCCOCCOCCNc5cccc6c5C(=O)N(C5CCC(=O)NC5=O)C6=O)CC4)cn3)nc2n(C2CCCC2)c1=O (stereo not drawn) [compound 14]	26	7.8	3.3	3.1	0.8	
CC(=O)c1c(C)c2cnc(Nc3ccc(N4CCN(C(=O)CCC(=O)NCCCOCCCCOCCCNc5cccc6c5C(=O)N(C5CCC(=O)NC5=O)C6=O)CC4)cn3)nc2n(C2CCCC2)c1=O (stereo not drawn) [compound 15]	91	65	1.4	3.1	56	
CC(=O)c1c(C)c2cnc(Nc3ccc(N4CCN(C(=O)CCCCCOCCCCOCCCCOCCCCNc5cccc6c5C(=O)N(C5CCC(=O)NC5=O)C6=O)CC4)cn3)nc2n(C2CCCC2)c1=O (stereo not drawn) [compound 18]	57	17	3.4	4.4	5.9	
CC(=O)c1c(C)c2cnc(Nc3ccc(N4CCN(CCOCCOCCOCCOc5cc(-c6scnc6C)ccc5CNC(=O)[C@@H]5C[C@@H](O)CN5C(=O)[C@H](C(C)C)N5Cc6ccccc6C5=O)CC4)cn3)nc2n(C2CCCC2)c1=O [compound 30]	94	69	1.4	3.1		
CC(=O)c1c(C)c2cnc(Nc3ccc(N4CCN(CCCCCCOCCCCCOCCCCCOc5cc(-c6scnc6C)ccc5CNC(=O)[C@@H]5C[C@@H](O)CN5C(=O)[C@H](C(C)C)N5Cc6ccccc6C5=O)CC4)cn3)nc2n(C2CCCC2)c1=O [compound 31]	> 95	65		5.3		
CN[C@H](C)C(=O)N[C@H](C(=O)N1C[C@@H](Oc2cccc(OCCOCCOCCOCCN3CCN(c4ccc(Nc5ncc6c(C)c(C(C)=O)c(=O)n(C7CCCC7)c6n5)nc4)CC3)c2)C[C@H]1C(=O)N[C@@H]1CCCc2ccccc21)C1CCCCC1 [compound 36]				4.5		D CDK4: remaining CDK4 levels (CDK4; [4]): failed to degrade; remaining activity at 0.1 µM (CDK4; MM1.S, read-out: D CDK4: remaining CDK4 levels): > 95%; D CDK6: remaining CDK6 levels (CDK6; [4]): failed to degrade; remaining activity at 0.1 µM (CDK6; MM1.S, read-out: D CDK6: remaining CDK6 levels): > 95%

Now from value to molecule, other results behind:

remaining activity at 0.1 µM (CDK4; [2]) [%]	remaining activity at 0.1 µM (CDK6; [3]) [%]	Selectivity ratio D CDK4/D CDK6 for the degradation of CDK6 over CDK4 (CDK6; 0.1 μM, MM.1S cells)	chromatographic logD [1]	remaining activity at 0.1 µM (IKZF1) [%]	SMILES	further results
78	83	0.9			COc1cc(C(=O)O)ccc1NC(=O)[C@@H]1N[C@@H](CC(C)(C)C)[C@](C#N)(c2ccc(Cl)cc2F)[C@H]1c1cccc(Cl)c1F [6 (Idasanutlin), idasanutlin, reference compound]	remaining activity at 1 µM (CDK4; MM1.S, 1 μM, MM.1S cells, normalized to DMSO (100%), read-out: D CDK4: remaining CDK4 levels): 40%; Effect of MDM2 ligands on CDK4 levels (CDK4; MM.1S cells): dose-dependent effects on CDK4 levels; remaining activity at 1 µM (CDK6; MM1.S, 1 μM, MM.1S cells, normalized to DMSO (100%), read-out: D CDK6: remaining CDK6 levels): 70%
15	7.7	1.9	2.8	1	CC(=O)c1c(C)c2cnc(Nc3ccc(N4CCN(C(=O)COCCOCCOCCNc5cccc6c5C(=O)N(C5CCC(=O)NC5=O)C6=O)CC4)cn3)nc2n(C2CCCC2)c1=O (stereo not drawn) [compound 13]	
76	32	2.4	4.6	6.7	CC(=O)c1c(C)c2cnc(Nc3ccc(N4CCN(C(=O)CCCCOCCCCCOCCCCCCNc5cccc6c5C(=O)N(C5CCC(=O)NC5=O)C6=O)CC4)cn3)nc2n(C2CCCC2)c1=O (stereo not drawn) [compound 16]	
86	51	1.7	5.2	18	CC(=O)c1c(C)c2cnc(Nc3ccc(N4CCN(C(=O)CCCCCOCCCCCCOCCCCCCNc5cccc6c5C(=O)N(C5CCC(=O)NC5=O)C6=O)CC4)cn3)nc2n(C2CCCC2)c1=O (stereo not drawn) [compound 17]	
61	8.2	7.4	2.7		CC(=O)c1c(C)c2cnc(Nc3ccc(N4CCN(CCOCCOCC(=O)N[C@H](C(=O)N5C[C@H](O)C[C@H]5C(=O)NCc5ccc(-c6scnc6C)cc5)C(C)(C)C)CC4)cn3)nc2n(C2CCCC2)c1=O [compound 23]	
80	14	5.7	3.5		CC(=O)c1c(C)c2cnc(Nc3ccc(N4CCN(CCOCCOCCOCC(=O)N[C@H](C(=O)N5C[C@H](O)C[C@H]5C(=O)NCc5ccc(-c6scnc6C)cc5)C(C)(C)C)CC4)cn3)nc2n(C2CCCC2)c1=O [compound 24]	
> 95	40		4.8		CC(=O)c1c(C)c2cnc(Nc3ccc(N4CCN(CCCCCCOCCCCCOCCCCC(=O)N[C@H](C(=O)N5C[C@H](O)C[C@H]5C(=O)NCc5ccc(-c6scnc6C)cc5)C(C)(C)C)CC4)cn3)nc2n(C2CCCC2)c1=O [compound 25]	
> 95	62		4.5		CC(=O)c1c(C)c2cnc(Nc3ccc(N4CCN(CCCCCCCCOc5cc(-c6scnc6C)ccc5CNC(=O)[C@@H]5C[C@@H](O)CN5C(=O)[C@H](C(C)C)N5Cc6ccccc6C5=O)CC4)cn3)nc2n(C2CCCC2)c1=O [compound 28]	
> 95	29		3.2		CC(=O)c1c(C)c2cnc(Nc3ccc(N4CCN(CCOCCOCCOc5cc(-c6scnc6C)ccc5CNC(=O)[C@@H]5C[C@@H](O)CN5C(=O)[C@H](C(C)C)N5Cc6ccccc6C5=O)CC4)cn3)nc2n(C2CCCC2)c1=O [compound 29]	
65	1.4	46	3		CC(=O)c1c(C)c2cnc(Nc3ccc(N4CCN(CCOCCOCCOc5cc(-c6scnc6C)ccc5CNC(=O)[C@@H]5C[C@@H](O)CN5C(=O)[C@@H](NC(=O)C5(C#N)CC5)C(C)(C)C)CC4)cn3)nc2n(C2CCCC2)c1=O [compound 33]	
